Data published in US11135322B2, “Radiofluorination method” (GE HEALTHCARE LIMITED, priority 2012, dated 2021).

Experiment: Hydrolytic stability of the metal halide complexes in aqueous solution (19F and 71Ga NMR studies)
Format: physicochemical
Source text: ^19F and ^71Ga NMR studies show complete conversion to [GaF3(Me3-tacn)]. Furthermore they confirm that the structure of the complex is retained in solution. […] The structure has also been confirmed crystallographically (FIG. 2). This provides clear evidence that direct incorporation of fluoride into the coordination sphere of carefully selected metal ions is entirely feasible, as well as establishing the high stability of the resulting fluoro complexes, even in aqueous solution.

- resistance to hydrolysis / hydrolytic stability (aqueous solution): resistant to hydrolysis
Substance: [GaF3(Me3-tacn)].4H2O
- stability relative to analogous halide or metal complexes (comparison with analogues): considerably more stable than the chloride and bromide analogues
